Data set [1] in a line: Calcein dye leakage assay, POPC:LPS LUVs. As to conditions: POPC:LPS (12.5:1) LUVs, final peptide concentration 2 μg/mL; n = 3. How it is done: (§1) Large unilamellar vesicles (LUVs) containing POPC:LPS (12.5:1, mol/mol) and POPC:cholesterol (2:1, mol/mol) were prepared using the extrusion method and an Avanti small-volume extrusion apparatus(Avanti Polar Lipids). To prepare the vesicles, phospholipids were dissolved in a chloroform/methanol mixture (4:1, v/v), evaporated using nitrogen gas, and suspended in PBS buffer. The lipid suspensions underwent six to eight cycles of freezing and thawing before being extruded ten times through a […] pore size polycarbonate filter, followed by ten times through a […] filter. Calcein-filled LUVs were also prepared by loading calcein-containing buffer (70 mM calcein and 10 mM Tris at pH 7.4) into a Sephadex G-75 column loaded with iso-osmotic buffer (100 mM sodium chloride and 10 mM Tris) to remove unencapsulated calcein. The phospholipid content of the vesicles was determined by assessing inorganic phosphate using the ammonium ferrothiocyanate method described by John Charles Marshall Stewart.
(§2) Calcein leakage induced by peptides was measured using a Perkin-Elmer luminescence spectrofluorimeter with excitation and emission wavelengths of 496 and 515 nm, respectively. Calcein-entrapped LUVs were diluted to a concentration of 10 µM. The maximum degree of leakage was induced by 100 mg/mL Triton X-100.
(§3) The degree of leakage induced by various peptide concentrations was calculated using the formula: Leakage % = ((F − F0)/(Fr − F0)) × 100%, where F0 and Fr represent the initial fluorescence intensities observed without peptide and after adding 100 mg/mL Triton X-100, respectively.

Data set [2] can be described thus: Calcein dye leakage assay, POPC:Cholesterol LUVs. The conditions noted are these: POPC:Cholesterol (2:1) LUVs, final peptide concentration 2 μg/mL; n = 3. How it is done:
as §1, §2, §3

The test system of data set [3] is human red blood cells (hRBCs). Kind of data set: Hemolytic activity assay. The format is cell-based. As to conditions: 1 h; for lysis of RBCs (hemolysis): 200 μM peptide, 100% = 1% Triton X-100. How it is done: Equal volumes of peptides and hRBCs were mixed and incubated at 37 °C for 1 h. The supernatant was collected from the samples and tested for absorbance at 565 nm. Zero hemolysis (blank) was defined in PBS buffer, while 100% hemolysis was defined in 1% Triton X-100.
Hemolytic activity was evaluated by testing the ability of the peptides to cause lysis of human red blood cells (hRBCs), both in the presence and absence of the antimicrobial peptide. Blood samples were collected from healthy volunteers and treated with ethylenediaminetetraacetic acid (EDTA) to prevent coagulation. The hRBCs were then washed three times with phosphate-buffered saline (PBS) and pelleted by centrifugation at 800× g for 10 min. Next, the hRBCs were diluted in PBS to a final concentration of 10%. Peptides were serially diluted in PBS ranging from 400 µM to 3.13 µM, and an equal volume of 10% hRBC was added to each dilution. After incubation at 37 °C for 1 h, the supernatant was collected by centrifugation at 800× g for 10 min, and the absorbance at 565 nm was measured. Negative controls (PBS blank) and positive controls (1% Triton X-100 in PBS) were also included. The percentage of hemolysis was calculated using the following formula: %hemolysis = [(Asample − APBS)/(ATritonX-100 − APBS)] × 100%, where A is the absorbance under the specified conditions.

The next data set deals with HaCaT cells. Description: Cell migration assay (in vitro wound healing assay). Type of data set: cell-based, human. As to conditions: 24 h. How it is done: Figure 3 Cell migration rate (In Vitro wound healing rate) of HaCaT cells induced by the designed peptides. […] (Bar: 200 μm) Results are presented as means ± standard deviations (SD); n = 3 (three independent experiments), ns = no significant differences; ** p < 0.01; *** p < 0.001; **** p < 0.0001 compared with PBS (Negative Control) and 100 ng/mL EGF (Positive Control).
For the Cell Migration Assay (in vitro wound healing assay), HaCaT cells (4 × 10^4 cells) were seeded on each side of an ibidi culture insert (ibidi, Germany) in DMEM medium supplemented with 10% fetal bovine serum. The inserts were placed into a 24-well plate and incubated at 37 °C and 5% CO2 overnight. After removing the inserts, 1 mL of serum-free DMEM medium supplemented with different concentrations of peptide was added. Medium without peptide and with 100 ng/mL EGF (epidermal growth factor) were used as negative and positive controls, respectively. The migration area was imaged at 0 and 24 h using an inverted fluorescent microscope (Zeiss/Observer Z1) at 10× magnification, and the area was quantified using ImageJ software(version 1.54g). The repairing rate was calculated using the formula: Repairing Rate = (Area0h-Area24h)/Area0h, where 0 h and 24 h represent the time points at which the images were taken.

The mark [4] stands for this setting: hRBCs in PBS, 37 °C, absorbance 565 nm.
The mark [5] stands for this setting: hRBCs in PBS, 37 °C, absorbance 565 nm, 108.7 µg/mL(200 µM) used when no detectable hemolytic activity.

For Ac-KWRKWLKWLAKKK-NH2 [Peptide W5K01], the values for the calcein leakage in data set [1] and in data set [2] were 74% and “above 60%”, respectively. The “lysis of RBCs (hemolysis)” value in data set [3] (setting [4]) is given as approximately 25%. The “HC10 (concentration that induced 10% hemolysis of human red blood cells)” value in data set [3] (setting [5]) was 70.9 µg/mL.
Consider Ac-KKKKWRKWLKWLA-NH2 [Peptide W5K11], for which the “wound healing effect (cell migration rate)” value (from here on “wound healing effect”) in the data set on HaCaT cells (4 µg/mL peptide) is reported as “comparable wound healing effects”; in the data set with HaCaT cells (serum-free DMEM, 0.25 µg/mL to 4 µg/mL, compared to the negative control) it was “superior wound healing effect even at the lowest concentration of 0.25 µg/mL”. The results for the calcein leakage in data set [1] and in data set [2] were 85% and “above 60%”, respectively. For the same substance, the “lysis of RBCs (hemolysis)” value in data set [3] (setting [4]) was approximately 27%. Also, the “HC10 (concentration that induced 10% hemolysis of human red blood cells)” value in data set [3] (phosphate buffer) worked out at 71.0 µg/mL.
As for Ac-WRKWLKWLAKKKK-NH2 [Peptide W5K02], the calcein leakage is 78% in data set [1] and “above 60%” in data set [2]. Besides, the “lysis of RBCs (hemolysis)” value in data set [3] (setting [4]) is approximately 34%. Also, the “HC10 (concentration that induced 10% hemolysis of human red blood cells)” value in data set [3] (setting [5]) was found to be 16.7 µg/mL.
In the case of Ac-WLKWLAKKKKWRK-NH2 [Peptide W5K05], in data set [1], the calcein leakage is reported as 69%.
Ac-AKKKKWRKWLKWL-NH2 [Peptide W5K10]: the “wound healing effect” value in the data set on HaCaT cells (4 µg/mL peptide) is listed as “comparable wound healing effects”. In data set [1], the calcein leakage is 81%. The “lysis of RBCs (hemolysis)” value in data set [3] (setting [4]) is listed as “less than 10%”.
Ac-KKWRKWLKWLAKK-NH2 [W5K/A9W]: the “wound healing effect” value in the data set with HaCaT cells (4 µg/mL peptide) is “comparable wound healing effects”. For the same substance, the calcein leakage in data set [1] is on record as 82%; in data set [2], “above 60%”. The “lysis of RBCs (hemolysis)” value in data set [3] (setting [4]) is on record as “approximately 35%”. Besides, in data set [3] (setting [5]), the “HC10 (concentration that induced 10% hemolysis of human red blood cells)” value is reported as 30.0 µg/mL.
Regarding Ac-KKKWRKWLKWLAK-NH2 [Peptide W5K12], the calcein leakage in data set [1] is 82%; in data set [2] it was “above 60%”. Also, the “lysis of RBCs (hemolysis)” value in data set [3] (setting [4]) is given as approximately 30%. Moreover, the “HC10 (concentration that induced 10% hemolysis of human red blood cells)” value in data set [3] (setting [5]) is recorded as 41.7 µg/mL.

Source of the values: PMC12649549, “Sequence Permutation Generated Lysine and Tryptophan-Rich Antimicrobial Peptides with Enhanced Therapeutic Index” (Antibiotics, 2025).
